Target: HSD17B13 (Homo sapiens (Human), UniProt Q7Z5P4)
Test: LC/MS estrone detection assay: conversion of estradiol to estrone by HSD17B13
Assay type: biochemical
Settings: 4 μM estradiol, 6 mM NAD+, 30 nM HSD17B13 enzyme (E. coli expressed His-tagged), 2 hours at 26.5° C.
Procedure: The liquid chromatography/mass spectrometry (LC/MS) estrone detection assay monitors the conversion of estradiol to estrone by HSD17B13. This assay was undertaken in a 96wp format (Eppendorf deep well Plate 96/500) in an 80 μl reaction volume containing: 4 μM of Estradiol (E2; Cayman; Ser. No. 10/006,315), 6 mM NAD+(Sigma; #N0623) and 30 nM HSD17B13 enzyme (in-house; E. coli expressed His-tagged, purified, soluble protein) in a reaction containing […] potassium phosphate buffer pH 7.4, with 0.5% vehicle (DMSO). Reactions were incubated for 2 hours at 26.5° C., and estradiol (E2) conversion to estrone (E1) was quantitated by LC-MS/MS based analyte detection for both E2 and E1 using LCMS grade reagents.
Reactions were terminated by the addition of two volumes of acetonitrile (MeCN; LCMS grade; CAS #75/05/8) containing deuterated (D4)-E1 used as internal standard (Clear Synth; #CS-T-54273; 500 ng/mL final concentration). Samples were applied to pre-prepared Bond Elut-C18 extraction cartridges (3 mL; Agilent; Ser. No. 12/102,028), washed and eluted in MeCN. Eluates were dried under nitrogen and re-suspended in 60% methanol (LCMS grade methanol; CAS #67/56/1) before submission for analysis. Aqueous linearity for E2 and E1 were included for quantification.
Analysis of samples was undertaken on a XBridge BEH C18 column (Waters; #186003033) using 0.1% Diethyl Amine in MeCN (mobile phase A; DEA CAS #109-89-7) and 0.1% Diethyl Amine in milli-Q water (mobile phase B) in a 3 min gradient allowing 25% B. Analytes were detected in negative mode using MRM analysis, with E2 having a RT of 1.85 min and E1 having a RT of 2 min. Activity of the enzyme, in the absence of NAD^+, was used to evaluate specificity of conversion. Enzyme activity in the presence of test samples was expressed as a percentage of the uninhibited enzyme activity, and plotted versus inhibitor concentration. Non-linear regression was performed using a four-parameter logistic model and GraphPad Prism software (GraphPad Software, La Jolla, Calif.). All assessments were undertaken in duplicate evaluations and pooled during extraction process and subsequently injected as duplicates for LC-MS/MS analysis.

HSD17B13, sequence (Q7Z5P4 20-300): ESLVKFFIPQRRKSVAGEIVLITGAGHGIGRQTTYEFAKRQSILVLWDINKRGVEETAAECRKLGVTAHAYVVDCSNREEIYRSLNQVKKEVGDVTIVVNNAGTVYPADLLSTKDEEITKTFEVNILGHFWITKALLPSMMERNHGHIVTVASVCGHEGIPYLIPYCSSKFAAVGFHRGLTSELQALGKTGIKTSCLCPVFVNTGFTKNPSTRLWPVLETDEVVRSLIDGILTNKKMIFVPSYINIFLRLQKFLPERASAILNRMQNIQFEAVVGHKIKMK

Structure (SMILES) | IC50 [nM]
O=C(Nc1cccc2ncn([C@@H]3C[C@H]3c3ccccc3)c(=O)c12)c1cc(Cl)c(O)c(Cl)c1 (racemic) [Example 102, Rac-3,5-dichloro-4-hydroxy-N-(4-oxo-3-((1R,2S)-2-phenylcyclopropyl)-3,4-dihydroquinazolin-5-yl)benzamide] | 1000 to 10000
O=C(Nc1cccc2ncn(CC3CC3)c(=O)c12)c1cc(Cl)c(O)c(Cl)c1 [Example 3, 3,5-dichloro-N-(3-(cyclopropylmethyl)-4-oxo-3,4-dihydroquinazolin-5-yl)-4-hydroxybenzamide] | 100 to 500
O=C(Nc1cccc2ncn(Cc3cc[nH]c(=O)c3)c(=O)c12)c1cc(Cl)c(O)c(Cl)c1 [Example 4, 3,5-dichloro-4-hydroxy-N-(3-((2-hydroxypyridin-4-yl)methyl)-4-oxo-3,4-dihydroquinazolin-5-yl)benzamide] | 1000 to 10000
COc1ccccc1Cn1cnc2cccc(NC(=O)c3cc(Cl)c(O)c(Cl)c3)c2c1=O [Example 5, 3,5-dichloro-4-hydroxy-N-(3-(2-methoxybenzyl)-4-oxo-3,4-dihydroquinazolin-5-yl)benzamide] | 100 to 500
O=C(Nc1cccc2ncn(Cc3ccc(F)cc3)c(=O)c12)c1cc(Cl)c(O)c(Cl)c1 [Example 7, 3,5-dichloro-N-(3-(4-fluorobenzyl)-4-oxo-3,4-dihydroquinazolin-5-yl)-4-hydroxybenzamide] | 100 to 500
O=C(Nc1cccc2ncn(Cc3ccc(OC(F)(F)F)cc3)c(=O)c12)c1cc(Cl)c(O)c(Cl)c1 [Example 8, 3,5-dichloro-4-hydroxy-N-(4-oxo-3-(4-(trifluoromethoxy)benzyl)-3,4-dihydroquinazolin-5-yl)benzamide] | 100 to 500
O=C(Nc1cccc2ncn(Cc3ccccc3F)c(=O)c12)c1cc(Cl)c(O)c(Cl)c1 [Example 9, 3,5-dichloro-N-(3-(2-fluorobenzyl)-4-oxo-3,4-dihydroquinazolin-5-yl)-4-hydroxybenzamide] | 100 to 500
O=C(Nc1cccc2ncn(Cc3ccncc3F)c(=O)c12)c1cc(Cl)c(O)c(Cl)c1 [Example 13, 3,5-dichloro-N-(3-((3-fluoropyridin-4-yl)methyl)-4-oxo-3,4-dihydroquinazolin-5-yl)-4-hydroxybenzamide] | 500 to 1000
O=C(Nc1cccc2ncn(Cc3nncs3)c(=O)c12)c1cc(Cl)c(O)c(Cl)c1 [Example 14, N-(3-((1,3,4-thiadiazol-2-yl)methyl)-4-oxo-3,4-dihydroquinazolin-5-yl)-3,5-dichloro-4-hydroxybenzamide] | 1000 to 10000
O=C(Nc1cccc2ncn(Cc3cocn3)c(=O)c12)c1cc(Cl)c(O)c(Cl)c1 [Example 15, 3,5-dichloro-4-hydroxy-N-(3-(oxazol-4-ylmethyl)-4-oxo-3,4-dihydroquinazolin-5-yl)benzamide] | 500 to 1000
O=C(Nc1cccc2ncn(Cc3cccc(F)c3)c(=O)c12)c1cc(Cl)c(O)c(Cl)c1 [Example 16, 3,5-dichloro-N-(3-(3-fluorobenzyl)-4-oxo-3,4-dihydroquinazolin-5-yl)-4-hydroxybenzamide] | 100 to 500
O=C(Nc1cccc2ncn(Cc3ccncc3)c(=O)c12)c1cc(Cl)c(O)c(Cl)c1 [Example 17, 3,5-dichloro-4-hydroxy-N-(4-oxo-3-(pyridin-4-ylmethyl)-3,4-dihydroquinazolin-5-yl)benzamide] | 1000 to 10000
O=C(Nc1cccc2ncn(Cc3ccc(C(F)(F)F)nc3)c(=O)c12)c1cc(Cl)c(O)c(Cl)c1 [Example 19, 3,5-dichloro-4-hydroxy-N-(4-oxo-3-((6-(trifluoromethyl)pyridin-3-yl)methyl)-3,4-dihydroquinazolin-5-yl)benzamide] | 100 to 500
O=C(Nc1cccc2ncn(C3(c4ccccc4)CC3)c(=O)c12)c1cc(Cl)c(O)c(Cl)c1 [Example 20, 3,5-dichloro-4-hydroxy-N-(4-oxo-3-(1-phenylcyclopropyl)-3,4-dihydroquinazolin-5-yl) benzamide] | 1000 to 10000
O=C(Nc1cccc2ncn(Cc3ccccc3OC(F)(F)F)c(=O)c12)c1cc(Cl)c(O)c(Cl)n1 [Example 23, 4,6-dichloro-5-hydroxy-N-(4-oxo-3-{[2-(trifluoromethoxy)phenyl]methyl}-3,4-dihydroquinazolin-5-yl)pyridine-2-carboxamide] | 100 to 500
O=C(Nc1ncsc1C(=O)NCc1ccccc1F)c1cc(Cl)c(O)c(Cl)c1 [Example 24, 4-(3,5-dichloro-4-hydroxybenzamido)-N-(2-fluorobenzyl)thiazole-5-carboxamide] | 1000 to 10000
O=C(Nc1ncsc1C(=O)NCCc1ccccc1C(F)(F)F)c1cc(Cl)c(O)c(Cl)c1 [Example 25, 4-(3,5-dichloro-4-hydroxybenzamido)-N-(2-(trifluoromethyl)phenethyl) thiazole-5-carboxamide] | 100 to 500
O=C(Nc1ncsc1C(=O)NCc1ccccc1C(F)(F)F)c1cc(Cl)c(O)c(Cl)c1 [Example 26, 4-(3,5-dichloro-4-hydroxybenzamido)-N-(2-(trifluoromethyl)benzyl)thiazole-5-carboxamide] | 100 to 500
O=C(Nc1ncsc1C(=O)NCc1ccccc1OC(F)(F)F)c1cc(Cl)c(O)c(Cl)c1 [Example 27, 4-(3,5-dichloro-4-hydroxybenzamido)-N-(2-(trifluoromethoxy)benzyl)thiazole-5-carboxamide] | 100 to 500
O=C(Nc1ncsc1C(=O)NCc1ccc(F)cc1F)c1cc(Cl)c(O)c(Cl)c1 [Example 28, 4-(3,5-dichloro-4-hydroxybenzamido)-N-(2,4-difluorobenzyl)thiazole-5-carboxamide] | 1000 to 10000
O=C(Nc1ncsc1C(=O)NC1(c2ccc(F)cc2)CC1)c1cc(Cl)c(O)c(Cl)c1 [Example 29, 4-(3,5-dichloro-4-hydroxybenzamido)-N-(1-(4-fluorophenyl)cyclopropyl)thiazole-5-carboxamide] | 100 to 500

Further lines, results first:

IC50 [nM] | Structure (SMILES)
100 to 500 | O=C(Nc1cccc2ncn([C@@H]3CC[C@H]3c3ccccc3)c(=O)c12)c1cc(Cl)c(O)c(Cl)n1 (racemic) [Example 175, rac-4,6-dichloro-5-hydroxy-N-(4-oxo-3-((1R,2S)-2-phenylcyclobutyl)-3,4-dihydroquinazolin-5-yl)picolinamide]
100 to 500 | O=C(Nc1cccc2ncn(Cc3ccccc3)c(=O)c12)c1cc(Cl)c(O)c(Cl)c1 [Example 1, N-(3-benzyl-4-oxo-3,4-dihydroquinazolin-5-yl)-3,5-dichloro-4-hydroxybenzamide]
≤ 100 | O=C(Nc1cccc2ncn(Cc3ccccc3OC(F)(F)F)c(=O)c12)c1cc(Cl)c(O)c(Cl)c1 [Example 2, 3,5-dichloro-4-hydroxy-N-(4-oxo-3-(2-(trifluoromethoxy)benzyl)-3,4-dihydroquinazolin-5-yl)benzamide]
≤ 100 | O=C(Nc1cccc2ncn(Cc3ccc(C(F)(F)F)cc3)c(=O)c12)c1cc(Cl)c(O)c(Cl)c1 [Example 6, 3,5-dichloro-4-hydroxy-N-(4-oxo-3-(4-(trifluoromethyl)benzyl)-3,4-dihydroquinazolin-5-yl)benzamide]
≤ 100 | O=C(Nc1cccc2ncn(Cc3cccc(OC(F)(F)F)c3)c(=O)c12)c1cc(Cl)c(O)c(Cl)c1 [Example 10, 3,5-dichloro-4-hydroxy-N-(4-oxo-3-(3-(trifluoromethoxy)benzyl)-3,4-dihydroquinazolin-5-yl)benzamide]
≤ 100 | O=C(Nc1cccc2ncn(Cc3cccc(C(F)(F)F)c3)c(=O)c12)c1cc(Cl)c(O)c(Cl)c1 [Example 11, 3,5-dichloro-4-hydroxy-N-(4-oxo-3-(3-(trifluoromethyl)benzyl)-3,4-dihydroquinazolin-5-yl)benzamide]
≤ 100 | C[C@@H](c1cccc(F)c1)n1cnc2cccc(NC(=O)c3cc(Cl)c(O)c(Cl)c3)c2c1=O [Example 12, (S)-3,5-dichloro-N-(3-(1-(3-fluorophenyl)ethyl)-4-oxo-3,4-dihydroquinazolin-5-yl)-4-hydroxybenzamide]
≤ 100 | O=C(Nc1cccc2ncn(Cc3ccccc3C(F)(F)F)c(=O)c12)c1cc(Cl)c(O)c(Cl)c1 [Example 18, 3,5-dichloro-4-hydroxy-N-(4-oxo-3-(2-(trifluoromethyl)benzyl)-3,4-dihydroquinazolin-5-yl)benzamide]
≤ 100 | O=C(Nc1cccc2ncn(C3(c4ccccc4F)CC3)c(=O)c12)c1cc(Cl)c(O)c(Cl)c1 [Example 21, 3,5-dichloro-N-(3-(1-(2-fluorophenyl)cyclopropyl)-4-oxo-3,4-dihydroquinazolin-5-yl)-4-hydroxybenzamide]
≤ 100 | O=C(Nc1cccc2ncn(Cc3cccc(F)c3)c(=O)c12)c1cc(Cl)c(O)c(Cl)n1 [Example 22, 4,6-dichloro-N-{3-[(3-fluorophenyl)methyl]-4-oxo-3,4-dihydroquinazolin-5-yl}-5-hydroxypyridine-2-carboxamide]

Reference: patent US20230278981A1, “DICHLOROPHENOL HSD17B13 INHIBITORS AND USES THEREOF” (INIPHARM, INC., priority 2020, published 2023)
